# Reference: PubChem BioAssay AID2060493 (Molecular Pharmacology Branch, DTP, NCI, 2025)
# pIC50: −log10 of the molar value.
# Tested on: 616215-338-R-J1-PDC tumor spheroids, viability
# Test: Anticancer human tumor 616215-338-R-J1-PDC patient-derived colon adenocarcinoma cell line growth inhibition [GQUAD]
# Conditions: spheroids with HUVEC and MSC; for pIC50: curve of first compound; for viability, T/C: stronger effect = lower value
# From the text: DNA G-quadruplex Stabilizer Agents in Combinations in Complex Spheroids
# A high-throughput screen of multi-cell type tumor spheroids was designed to identify active combinations of DNA G-quadruplex stabilizer agents and targeted small molecules. Complex spheroids include a stromal component modeled by human endothelial cells (HUVEC) and fibroblasts modeled by human mesenchymal stem cells (MSCs). The concentration ranges selected for each drug and investigational agent were based upon clinically achievable concentrations if the clinical Cmax of the agent was known.
# Compounds. The drugs and investigational agents: pidnarulex (CX-5461; NSC782164), APTO-253 (NSC789042), BRACO-19 (NSC847499), peposertib (NSC802822), ceralasertib (NSC780249), elimusertib (NSC800525), camonsertib (NSC841442), AZD-1390 (NSC803789), olaparib (NSC753686), talazoparib (NSC767125), ART-558 (NSC835418), sotorasib (NSC818433), MRTX-1133 (NSC836407), SN-38 (NSC673596), topotecan (NSC609699), etoposide (NSC141540), doxorubicin (NSC123127), gemcitabine (NSC613327), 5-fluorouracil (NSC19893), paclitaxel (NSC125973), vemurafenib (NSC761431), panobinostat (NSC761190), R-306465 (JNJ-16241199; NSC773264), adavosertib (NSC754352), TP-3654 (NSC805149), carboplatin (NSC241240), KSQ-4279 (NSC840948), and staurosporine (NSC755774) were obtained from the National Cancer Institute (NCI) Developmental Therapeutics Program Chemical Repository (34). The FDA-approved anticancer drug set is available from the NCI Developmental Therapeutics Program. […] The stock solutions were prepared in dimethyl sulfoxide (DMSO, Sigma-Aldrich, St. Louis, MO, cat. D2650) at 800-fold the tested concentration and stored at -70 degrees C prior to their use. All drugs and investigational agents were tested over a range starting from a high concentration at or near the clinical Cmax and decreasing in half-log increments. If the clinical Cmax for an agent had not been determined, the highest concentration tested was 10 microM.
# 2.3 Cell Culture. All cells were maintained in an incubator at 37 degrees C and 5% CO2 with 95% humidity. The PDC lines were cultured according to standard operating procedures established by the NCI PDMR. All PDCs were thawed and cultured in Matrigel-coated flasks prepared with a working solution of 1X Ham's F-12 nutrient mix, without supplementation (Invitrogen, cat. 11765054), 100 U/mL penicillin-streptomycin (Invitrogen, cat. 15140122), and 2.5% Matrigel (Corning Inc., cat. 354248) for the first three passages. The 857933-349-R-J2-PDC line was cultured in 6C/Colon 1B media, which includes advanced DMEM/F-12 (Thermo Fisher Scientific, cat. 12634028), 10 mM HEPES (Thermo Fisher Scientific, cat. 15630080), 1X GlutaMAX supplement (Thermo Fisher Scientific, cat. 35050061), 0.1 mg/mL primocin (InvivoGen, cat. ant-pm-2), 10% defined fetal bovine serum, heat inactivated (HyClone Laboratories Inc., cat. SH30070.03HI), 50% L-WRN conditioned media (ATCC, cat. CRL-3276), 1.25 mM N-Acetyl-L-cysteine (Sigma-Aldrich, cat. A9165), 10 mM nicotinamide (Sigma-Aldrich, cat. N0636), 1X B-27 supplement (Thermo Fisher Scientific, cat. 17504044), 1X N-2 supplement (Thermo Fisher Scientific, cat. 17502048), 10 microM Y-27632 dihydrochloride (Tocris Bioscience, cat. 1254), and 50 ng/mL human EGF recombinant protein (Thermo Fisher Scientific, cat. PHG0311). The 485176-168-R4-J1-PDC line was cultured in Panc media, which includes all 6C/Colon 1B media components plus 100 ng/mL human FGF-10 (Thermo Fisher Scientific, cat. 100-26), 500 nM SB-431542 (Selleckchem, cat. S1067), and gastrin (Tocris, cat. 3006).
# […]
# [1] = second compound 0.0316 µM, first compound 0.0316 µM
# [2] = second compound 0.0316 µM, first compound 0.1 µM
# [3] = second compound 0.0316 µM, first compound 0.316 µM
# [4] = second compound 0.0316 µM, first compound 1 µM
# [5] = second compound 0.0316 µM, first compound 3.16 µM
# [6] = second compound 0.0316 µM, first compound 10 µM
# [7] = second compound 0.1 µM, first compound 0.0316 µM
# [8] = second compound 0.1 µM, first compound 0.1 µM
# [9] = second compound 0.1 µM, first compound 0.316 µM
# [10] = second compound 0.1 µM, first compound 1 µM
# [11] = second compound 0.1 µM, first compound 3.16 µM
# [12] = second compound 0.1 µM, first compound 10 µM
# [13] = second compound 0.316 µM, first compound 0.0316 µM
# [14] = second compound 0.316 µM, first compound 0.1 µM
# [15] = second compound 0.316 µM, first compound 0.316 µM
# [16] = second compound 0.316 µM, first compound 1 µM
# [17] = second compound 0.316 µM, first compound 3.16 µM
# [18] = second compound 0.316 µM, first compound 10 µM
# [19] = second compound 1 µM, first compound 0.0316 µM
# [20] = second compound 1 µM, first compound 0.1 µM
# [21] = second compound 1 µM, first compound 0.316 µM
# [22] = second compound 1 µM, first compound 1 µM
# [23] = second compound 1 µM, first compound 3.16 µM
# [24] = second compound 1 µM, first compound 10 µM
# [25] = second compound 3.16 µM, first compound 0.0316 µM
# [26] = second compound 3.16 µM, first compound 0.1 µM
# [27] = second compound 3.16 µM, first compound 0.316 µM
# [28] = second compound 3.16 µM, first compound 1 µM
# [29] = second compound 3.16 µM, first compound 3.16 µM
# [30] = second compound 3.16 µM, first compound 10 µM
# [31] = second compound 10 µM, first compound 0.0316 µM
# [32] = second compound 10 µM, first compound 0.1 µM
# [33] = second compound 10 µM, first compound 0.316 µM
# [34] = second compound 10 µM, first compound 1 µM
# [35] = second compound 10 µM, first compound 3.16 µM
# [36] = second compound 10 µM, first compound 10 µM
# 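Further: spheroids exposed to agents for 7 days before readout.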
# 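Wherever viability, T/C is given: percent viability relative to DMSO vehicle control wells taken as 100%.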
compound,measurement,setting,value
CCCS(=O)(=O)Nc1ccc(F)c(C(=O)c2c[nH]c3ncc(-c4ccc(Cl)cc4)cc23)c1F + Cc1[nH]c2ccc(F)cc2c1-c1nc2c3cccnc3c3ncccc3c2[nH]1,pIC50,second compound 0.0316 µM,5.26
same,pIC50,second compound 0.1 µM,5.28
same,pIC50,second compound 0.316 µM,5.25
same,pIC50,second compound 1 µM,5.27
same,pIC50,second compound 3.16 µM,5.28
same,pIC50,second compound 10 µM,5.32
same,"viability, T/C",[1],105%
same,"viability, T/C",[2],96.7%
same,"viability, T/C",[3],93.8%
same,"viability, T/C",[4],99.1%
same,"viability, T/C",[5],94.9%
same,"viability, T/C",[6],2.78%
same,"viability, T/C",[7],93.6%
same,"viability, T/C",[8],107%
same,"viability, T/C",[9],102%
same,"viability, T/C",[10],102%
same,"viability, T/C",[11],87.6%
same,"viability, T/C",[12],3.08%
same,"viability, T/C",[13],104%
same,"viability, T/C",[14],98.7%
same,"viability, T/C",[15],99%
same,"viability, T/C",[16],98%
same,"viability, T/C",[17],96.5%
same,"viability, T/C",[18],3.41%
same,"viability, T/C",[19],109%
same,"viability, T/C",[20],106%
same,"viability, T/C",[21],89%
same,"viability, T/C",[22],96.3%
same,"viability, T/C",[23],91.5%
same,"viability, T/C",[24],2.83%
same,"viability, T/C",[25],96.7%
same,"viability, T/C",[26],91.4%
same,"viability, T/C",[27],101%
same,"viability, T/C",[28],95.2%
same,"viability, T/C",[29],86.6%
same,"viability, T/C",[30],1.44%
same,"viability, T/C",[31],101%
same,"viability, T/C",[32],92.3%
same,"viability, T/C",[33],101%
same,"viability, T/C",[34],93.5%
same,"viability, T/C",[35],76.8%
same,"viability, T/C",[36],1.37%
O=c1[nH]cc(F)c(=O)[nH]1 + Cc1[nH]c2ccc(F)cc2c1-c1nc2c3cccnc3c3ncccc3c2[nH]1,pIC50,second compound 0.0316 µM,6.16
same,pIC50,second compound 0.1 µM,6.42
same,pIC50,second compound 0.316 µM,6.23
same,pIC50,second compound 1 µM,6.14
same,pIC50,second compound 3.16 µM,6.47
same,pIC50,second compound 10 µM,6.54
same,"viability, T/C",[1],97.7%
same,"viability, T/C",[2],96.9%
same,"viability, T/C",[3],64.3%
same,"viability, T/C",[4],43%
same,"viability, T/C",[5],48.1%
same,"viability, T/C",[6],37%
same,"viability, T/C",[7],102%
same,"viability, T/C",[8],94.4%
same,"viability, T/C",[9],51.8%
same,"viability, T/C",[10],41.3%
same,"viability, T/C",[11],36.3%
same,"viability, T/C",[12],35.1%
same,"viability, T/C",[13],99.6%
same,"viability, T/C",[14],92.6%
same,"viability, T/C",[15],57.1%
same,"viability, T/C",[16],47%
same,"viability, T/C",[17],37%
same,"viability, T/C",[18],34.2%
same,"viability, T/C",[19],96%
same,"viability, T/C",[20],94.8%
same,"viability, T/C",[21],65.1%
same,"viability, T/C",[22],46.1%
same,"viability, T/C",[23],39.2%
same,"viability, T/C",[24],43.6%
same,"viability, T/C",[25],98.3%
same,"viability, T/C",[26],82.9%
same,"viability, T/C",[27],51.5%
same,"viability, T/C",[28],37.6%
same,"viability, T/C",[29],38.8%
same,"viability, T/C",[30],42.7%
same,"viability, T/C",[31],102%
same,"viability, T/C",[32],83.8%
same,"viability, T/C",[33],46.7%
same,"viability, T/C",[34],38.9%
same,"viability, T/C",[35],34.3%
same,"viability, T/C",[36],36.2%
